From patent US10226451B2, “Substituted bicyclic compounds as bromodomain inhibitors” (ZENITH EPIGENETICS LTD, priority 2013, dated 2019) come the findings set out here.

Bounds are passed on as bounds.

The target of experiment [1] is T1, Brd4 bromodomain 1 (BRD4(1)) (Homo sapiens, UniProt O60885).
T1 construct: made in house; host or cells: E. coli BL21(DE3)
Briefly: Inhibition of tetra-acetylated histone H4 binding to Brd4 bromodomain 1 (HTRF/FRET). Particulars: tetra-acetylated histone H4 peptide, His-tagged bromodomain 200 nM, 2 h. The gist of the method: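 Inhibition was read as a drop in 665 nm relative to 620 nm HTRF signal after 2 h at room temperature, with IC50 from dose-response curves in duplicate wells. Reactions held 200 nM E. coli-expressed His-tagged bromodomain and 25-50 nM biotinylated tetra-acetylated histone H4 peptide. Buffer was 30 mM HEPES pH 7.4 with KF, CHAPS, BSA and 0.2% DMSO.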
In general terms: TR-FRET usually uses a lanthanide donor and a delayed reading to cut background.

The subject of experiment [2] is c-myc in Human AML MV4-11 cells. Nature of the experiment: Inhibition of c-MYC expression (mRNA, real-time PCR) in MV4-11 cells. Particulars: 3 h, mRNA by real-time PCR. It is filed as cell-based. Summed up: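 Cells at 2.5×10^4 per well in IMDM/10% FBS were treated with rising compound concentrations or 0.1% DMSO for 3 h at 37° C., in triplicate. cMYC mRNA was measured by one-step TaqMan qRT-PCR, normalised to cyclophilin, and expressed as fold expression relative to control.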

Experiment [3] relates to hIL-17 mRNA in human peripheral blood mononuclear cells. Nature of the experiment: Inhibition of hIL-17 mRNA transcription in OKT3-stimulated PBMC. It counts as cell-based. The following applies: OKT3 antibody, 6 h, read-out: IL-17 activity. As for the experimental part: In this example, hIL-17 mRNA in human peripheral blood mononuclear cells were quantitated to measure the transcriptional inhibition of hIL-17 when treated with a compound of the present disclosure.
Human peripheral blood mononuclear cells were plated (2.0×10^5 cells per well) in a 96-well plate in 45 μL OpTimizer T Cell expansion media (Life Technologies) containing 20 ng/ml IL-2 and penicillin/streptomycin. The cells were treated with increasing concentrations of the test compound or DMSO (0.1%), and incubated at 37° C., 5% CO2 for 1 h before addition of 10× stock OKT3 antibody at 10 ug/ml in media. Triplicate wells were used for each concentration. Cells were incubated at 37° C., 5% CO2 for 6 h before the cells were harvested. At time of harvest, cells were pelleted by centrifugation at 800 rpm for 5 min. Cells were harvested using the mRNA Catcher PLUS kit according to manufacturer's instructions. The eluted mRNA was then used in a one-step quantitative real-time PCR reaction, using components of the RNA UltraSense™ One-Step Kit (Life Technologies) together with Applied Biosystems TaqMan® primer-probes for hIL-17 and Cyclophilin. Real-time PCR plates were run on a ViiA™7 real time PCR machine (Applied Biosystems), data was analyzed, normalizing the Ct values for hIL-17 to an internal control, prior to determining the fold induction of each unknown sample, relative to the control.

In the next experiment the test system is hIL-6 mRNA in U937 cells. Briefly: Inhibition of hIL-6 mRNA transcription in LPS-stimulated U937 cells. It counts as cell-based. Particulars: Homo sapiens, U-937, PMA-differentiated U937 cells, LPS 1 ug/mL, 3 h, read-out: IL-6 activity. Summed up: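 U937 cells were differentiated to macrophages with 60 ng/mL PMA for 3 days, pretreated 1 h with compound in 0.1% DMSO, then stimulated with 1 ug/mL E. coli LPS for 3 h at 37° C. hIL-6 mRNA was quantified by one-step TaqMan RT-qPCR, normalized to cyclophilin, as fold expression versus control.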

The next experiment deals with Human AML MV-4-11 cells. Nature of the experiment: Inhibition of cell proliferation in MV4-11 cells (CellTiter Aqueous One). It is filed as cell-based. Particulars: 72 h. The gist of the method:
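MV4-11 cells at 5×10^4/well in IMDM with 10% FBS were exposed to increasing compound concentrations or 0.1% DMSO, in triplicate, for 72 h at 37 °C. A further 3-4 h with CellTiter Aqueous One reagent followed. A490, blank-corrected and expressed relative to DMSO, gave IC50.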

Experiment [4] concerns hApoA-I mRNA in Huh7 cells. Nature of the experiment: Up-regulation of hApoA-1 mRNA transcription in Huh7 cells. Particulars: EC170, Huh7 cells, 48 h. It is filed as cell-based, Human. As for the experimental part:
In this example, hApoA-I mRNA in tissue culture cells was quantitated to measure the transcriptional up-regulation of hApoA-I when treated with a compound of the present disclosure.
Huh7 cells (2.5×10^5 per well) were plated in a 96-well plate using 100 μL DMEM per well, (Gibco DMEM supplemented with penicillin/streptomycin and 10% FBS), 72 h before the addition of the compound. The cells are treated with increasing concentrations of the compound or DMSO (0.1%), and incubated at 37° C., 5% CO2 for 48 h. Spent media was removed from the Huh-7 cells and placed on ice for immediate use with the “LDH cytotoxicity assay Kit II” from Abcam. The cells remaining in the plate were rinsed with 100 μL PBS. Cells were harvested using the mRNA Catcher PLUS kit according to manufacturer's instructions. The eluted mRNA was then used in a one-step quantitative real-time PCR reaction, using components of the RNA UltraSense™ One-Step Kit (Life Technologies) together with Applied Biosystems TaqMan® primer-probes for hApoA-I and Cyclophilin. Real-time PCR plates were run on a ViiA™7 real time PCR machine (Applied Biosystems), data was analyzed, normalizing the Ct values for hApoA-1 to an internal control, prior to determining the fold induction of each unknown sample, relative to the control.

In the case of `Cc1noc(C)c1-c1cc(-c2c(C)noc2C)c2[nH]c(=O)[nH]c2c1` [Example Compound 1, 4,6-bis(3,5-dimethylisoxazol-4-yl)-1H-benzo[d]imidazol-2(3H)-one], the IC50 in experiment [1] is at most 300 nM; in experiment [2], 300 to 3000 nM; in experiment [3], at most 300 nM; in the experiment on hIL-6 mRNA in U937 cells it was at most 300 nM; with Human AML MV-4-11 cells, at most 300 nM. Further, the ApoA-1 activity result in experiment [4] was “+++ (EC170 value less than or equal to 0.3 μM were deemed to be highly active (+++))”.

Regarding `Cc1ncccc1-c1cc(-c2c(C)noc2C)cc2[nH]c(=O)n(C)c12` [Example Compound 4, 5-(3,5-dimethylisoxazol-4-yl)-1-methyl-7-(2-methylpyridin-3-yl)-1H-benzo[d]imidazol-2(3H)-one], the IC50 was at most 300 nM in experiment [1]; at most 300 nM in experiment [2]; 300 to 3000 nM in experiment [3]; at most 300 nM with hIL-6 mRNA in U937 cells; 300 to 3000 nM in the experiment on Human AML MV-4-11 cells. The ApoA-1 activity entry in experiment [4] is “+++ (EC170 value less than or equal to 0.3 μM were deemed to be highly active (+++))”.

Regarding `Cc1nn(C)cc1-c1cc(-c2c(C)noc2C)cc2[nH]c(=O)n(C)c12` [Example Compound 7, 7-(1,3-dimethyl-1H-pyrazol-4-yl)-5-(3,5-dimethylisoxazol-4-yl)-1-methyl-1H-benzo[d]imidazol-2(3H)-one], the IC50 in experiment [1] was at most 300 nM; in experiment [2], at most 300 nM; in experiment [3], 300 to 3000 nM; with hIL-6 mRNA in U937 cells it was at most 300 nM; with Human AML MV-4-11 cells it was at most 300 nM. Further, in experiment [4], the ApoA-1 activity result is “+++ (EC170 value less than or equal to 0.3 μM were deemed to be highly active (+++))”.

On to `COc1ncccc1-c1cc(-c2c(C)noc2C)cc2[nH]c(=O)n(C)c12` [Example Compound 13, 5-(3,5-dimethylisoxazol-4-yl)-7-(2-methoxypyridin-3-yl)-1-methyl-1H-benzo[d]imidazol-2(3H)-one], for which the IC50 in experiment [1] was at most 300 nM; in experiment [2], at most 300 nM; in experiment [3], 300 to 3000 nM; with hIL-6 mRNA in U937 cells, 300 to 3000 nM; in the experiment with Human AML MV-4-11 cells, 300 to 3000 nM. Further, the ApoA-1 activity result in experiment [4] is listed as “+++ (EC170 value less than or equal to 0.3 μM were deemed to be highly active (+++))”.
